Assay results: patent publication US4931270A, “Method for detecting dopaminergic diseases using fluorine-18 radiolabelled D2 dopamine receptor ligands” (Nelson Research & Development, priority 1988, dated 1990)

How the values were obtained:
[1] = target: T1, D1 -dopamine (Bos taurus, UniProt Q95136); test: Radioligand binding (displacement of 3H-SCH23390), bovine striatal membranes; details: bovine striatum membranes
T1 construct: Membranes derived from bovine striatum (for assaying dopamine receptors); from tissue; host or cells: bovine striatum membranes
Protocol: (§1) The selectivity of 2-[N-3-fluoropropyl-N-2-(2 thienyl)ethylamine]-5-hydroxytetralin has been investigated using radioligand binding assays to determine the binding affinity at different receptor types, namely D1 and D2 dopamine and α-adrenergicreceptor sites.
(§2) Membranes derived from bovine striatum (for assaying dopamine receptors) and rat cerebral cortex (for assaying α-adrenergic receptors) were prepared as follows. The tissue was homogenized using a tissue disrupter and centrifuged. The pellet was washed by resuspension and centrifugation. The bovine striatal membranes were […] and thawed just prior to use. […]

[2] = target: α-adrenergic; test: Radioligand binding (displacement of 3H-prazosin), rat cerebral cortex membranes
Protocol: as §1, §2

[3] = target: T2, D2 -dopamine (Bos taurus, UniProt P20288); test: Radioligand binding (displacement of 3H-N-0437), bovine striatal membranes
T2 construct: Membranes derived from bovine striatum (for assaying dopamine receptors); from tissue; host or cells: bovine striatum membranes
Protocol: as §1
Membranes derived from bovine striatum (for assaying dopamine receptors) and rat cerebral cortex (for assaying α-adrenergic receptors) were prepared as follows. The tissue was homogenized using a tissue disrupter and centrifuged. The pellet was washed by resuspension and centrifugation. The bovine striatal membranes were […] and thawed just prior to use.
The radioligands ^3 H-prazosin, H^3 [((R)-(+)-8 chloro-2, 3, 4, 5-tetrahydro-3-methyl-5-phenyl-H-3-benzazepin-7-ol](^3 H-SCH23390), and H^3 [5-hydroxy-2-(N-n-propyl-N-2-[2-thienyl]ethylamino)tetralin] (^3 H-N-0437) were used to label α-adrenegic, D1 -dopamine and D2 -dopamine receptors, respectively. Increasing concentrations of 2-[N-3-fluoropropyl-N-2-(2-thienyl)ethylamine]-5-hydroxy-tetralin were used to displace the binding of these radioligands from their respective receptors. Competition binding curves were hand drawn to fit the data, and IC50 values were determined graphically. The IC50 value indicates the concentration of test drug required to displace from attachment at the receptor site of interst 50 percent of the ligands of known affinity already in attachment there.

T2 sequence (P20288 whole entry): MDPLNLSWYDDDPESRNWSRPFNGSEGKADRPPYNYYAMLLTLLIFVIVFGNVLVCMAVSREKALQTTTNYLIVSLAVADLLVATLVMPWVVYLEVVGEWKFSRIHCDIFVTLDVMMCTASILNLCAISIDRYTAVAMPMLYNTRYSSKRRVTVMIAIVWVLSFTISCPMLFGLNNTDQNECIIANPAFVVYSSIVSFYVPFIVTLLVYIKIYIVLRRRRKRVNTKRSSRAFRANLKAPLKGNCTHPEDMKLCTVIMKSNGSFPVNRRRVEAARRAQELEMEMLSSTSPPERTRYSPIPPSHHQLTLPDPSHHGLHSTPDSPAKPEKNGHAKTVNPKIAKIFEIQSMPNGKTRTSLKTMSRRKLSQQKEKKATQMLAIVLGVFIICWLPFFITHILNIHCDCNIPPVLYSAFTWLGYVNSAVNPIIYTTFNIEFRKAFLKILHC
T1 sequence (Q95136 whole entry): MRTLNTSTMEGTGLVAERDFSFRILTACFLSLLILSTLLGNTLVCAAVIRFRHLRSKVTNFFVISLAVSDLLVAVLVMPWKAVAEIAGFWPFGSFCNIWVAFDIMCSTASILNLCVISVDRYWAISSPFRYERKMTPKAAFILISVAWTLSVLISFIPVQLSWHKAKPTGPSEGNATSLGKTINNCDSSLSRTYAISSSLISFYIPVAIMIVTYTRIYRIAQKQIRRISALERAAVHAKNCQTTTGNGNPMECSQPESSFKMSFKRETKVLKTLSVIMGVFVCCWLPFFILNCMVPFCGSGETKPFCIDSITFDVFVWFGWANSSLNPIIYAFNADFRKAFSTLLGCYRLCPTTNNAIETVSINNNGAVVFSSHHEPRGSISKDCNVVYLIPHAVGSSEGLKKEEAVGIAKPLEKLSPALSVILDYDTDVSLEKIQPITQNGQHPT

IC50 [1]: > 10 µM | IC50 [2]: 5.7 µM | affinity for dopamine D2 receptor sites (in words) [3]: unexpectedly high affinity | IC50 ([3]; D2 -dopamine, 3H-N-0437, bovine striatum membranes): 0.00103 ± 0.00049 µM | times more potent in binding to D2 -dopamine receptors than to α-adrenergic receptors ([3]; D2 versus α-adrenergic): more than 5000 times | selectivity for D2 -dopamine receptors (in words) ([3]; versus D1 and α-adrenergic): selective for D2 -dopamine receptors
Compound: Oc1cccc2c1CCC(N(CCCF)CCc1cccs1)C2 (stereo not drawn) [2-[N-3-Fluoropropyl-N-2-(2-thienyl)ethylamino]-5-hydroxytetralin]
